This test addresses T1, human GR (Homo sapiens, UniProt P04150).
T1 sequence (P04150 1-777): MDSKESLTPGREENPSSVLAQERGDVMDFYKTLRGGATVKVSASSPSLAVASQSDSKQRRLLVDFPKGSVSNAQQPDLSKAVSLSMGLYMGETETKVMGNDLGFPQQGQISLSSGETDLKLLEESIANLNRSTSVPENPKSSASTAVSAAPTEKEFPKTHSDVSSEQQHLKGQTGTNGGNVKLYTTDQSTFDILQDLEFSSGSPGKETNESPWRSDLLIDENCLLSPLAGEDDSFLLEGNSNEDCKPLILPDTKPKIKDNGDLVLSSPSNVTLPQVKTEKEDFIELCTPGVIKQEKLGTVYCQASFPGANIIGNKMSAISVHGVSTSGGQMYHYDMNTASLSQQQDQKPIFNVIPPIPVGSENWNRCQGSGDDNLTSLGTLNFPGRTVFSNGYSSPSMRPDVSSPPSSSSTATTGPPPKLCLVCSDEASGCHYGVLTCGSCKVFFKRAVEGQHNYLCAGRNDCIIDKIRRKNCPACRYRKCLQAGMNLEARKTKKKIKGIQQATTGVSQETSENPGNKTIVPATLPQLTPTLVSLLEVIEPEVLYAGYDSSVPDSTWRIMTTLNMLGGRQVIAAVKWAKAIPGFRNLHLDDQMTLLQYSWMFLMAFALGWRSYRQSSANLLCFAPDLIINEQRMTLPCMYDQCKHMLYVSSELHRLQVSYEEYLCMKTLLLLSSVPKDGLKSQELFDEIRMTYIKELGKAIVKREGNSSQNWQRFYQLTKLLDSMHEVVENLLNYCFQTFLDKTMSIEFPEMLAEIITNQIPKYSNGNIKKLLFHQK
As to the kind of experiment: Transrepression Assay (GITAR), TNFα-β-lactamase reporter in U937 cells. Type of test: cell-based. Set-up: U937 cells contain an endogenous glucocorticoid receptor (GR); endogenous in cells; host or cells: U937 cells stably transfected with the TNF-alpha promoter/beta-lactamase reporter. The settings on record: for GITAR > GRAMM % SEP: GITAR Emax minus GRAMMER Emax; for EC50: U937 cells, inflection point, read-out: Transrepression U937 Cells GITAR IP. Summed up:
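Read-out: CCF2-AM β-lactamase signal after 70–90 min loading at room temperature. U937 TNF-α-promoter reporter cells (endogenous GR), compound 30–45 min at 37 °C, then PMA 5 ng/ml + LPS 100 ng/ml final, ~18 hr. Normalised to 100 nM dexamethasone = 100%.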

Where [1] appears, read: U-937, U937 cells, maximum activity, read-out: Transrepression U937 Cells GITAR Emax.
Setting [2] is: U-937, activity repressed by 100 nM dexamethasone alone set as 100%, read-out: maximal activity in the transrepression (GITAR) assay.

Where two headings read alike, the source gives them in different places.

Consider `COC(=O)c1cc(Cl)ccc1CCN(C[C@H]1CCC2=Cc3c(cnn3-c3ccc(F)cc3)C[C@@]21C)S(=O)(=O)CC(F)(F)F` [Example 160, methyl 5-chloro-2-(2-{{[(4αR,5S)-1-(4-fluorophenyl)-4α-methyl-1,4,4α,5,6,7-hexahydrocyclopenta[f]indazol-5-yl]methyl}[(2,2,2-trifluoroethyl)sulfonyl]amino}ethyl)benzoate], for which the “GITAR > GRAMM % SEP” value amounted to 10.8% and the EC50 turned out to be 508 nM. For the same compound, the Emax under setting [1] amounted to 15.1%. Besides, under setting [2], the Emax is > 5%.
The like results for `Cc1noc(C)c1S(=O)(=O)NC[C@H]1CCC2=Cc3c(cnn3-c3ccc(F)cc3)C[C@@]21C` [Example 161, N-{[(4αR,5S)-1-(4-fluorophenyl)-4α-methyl-1,4,4α,5,6,7-hexahydrocyclopenta[f]indazol-5-yl]methyl}-3,5-dimethylisoxazole-4-sulfonamide] were, in that order, 26.7%, 930 nM, 45% and > 5%.
Taken in the same sequence, the figures for `COC(=O)c1ccccc1CS(=O)(=O)N(CC(O)C(F)(F)F)C[C@H]1CCC2=Cc3c(cnn3-c3ccc(F)cc3)C[C@@]21C` (stereo partly drawn) [Example 162, methyl 2-({[{[(4αR,5S)-1-(4-fluorophenyl)-4α-methyl-1,4,4α,5,6,7-hexahydrocyclopenta[f]indazol-5-yl]methyl}(3,3,3-trifluoro-2-hydroxypropyl)amino]sulfonyl}methyl)benzoate] were 3.7%, 202 nM, 90.8% and > 5%.
With `C[C@]12Cc3cnn(-c4ccc(F)cc4)c3C=C1CC[C@@H]2CN(CCc1ccccc1CO)S(=O)(=O)CC(F)(F)F` [Example 163, 2,2,2-trifluoro-N-{[(4αR,5S)-1-(4-fluorophenyl)-4α-methyl-1,4,4α,5,6,7-hexahydrocyclopenta[f]indazol-5-yl]methyl}-N-{2-[2-(hydroxymethyl)phenyl]ethyl}ethanesulfonamide], the “GITAR > GRAMM % SEP” value is given as 38.6% and the EC50 stood at 342 nM. For the same compound, the Emax under setting [1] was determined as 86.9%. Moreover, the Emax under setting [2] is > 5%.
Taken in the same sequence, the figures for `C[C@]12Cc3cnn(-c4ccc(F)cc4)c3C=C1CC[C@@H]2CN(CC(O)C(F)(F)F)S(=O)(=O)Cc1ccccc1C(=O)O` (stereo partly drawn) [Example 164, 2-({[{[(4αR,5S)-1-(4-fluorophenyl)-4α-methyl-1,4,4α,5,6,7-hexahydrocyclopenta[f]indazol-5-yl]methyl}(3,3,3-trifluoro-2-hydroxypropyl)amino]sulfonyl}methyl)benzoic acid] were 23.0%, 1250 nM, 81.3% and > 5%.
For the compound `C[C@]12Cc3cnn(-c4ccc(F)cc4)c3C=C1CC[C@@H]2CN(CCc1ccccn1)S(=O)(=O)Cc1ccccn1` [Example 165, N-{[(4αR,5S)-1-(4-fluorophenyl)-4α-methyl-1,4,4α,5,6,7-hexahydrocyclopenta[f]indazol-5-yl]methyl}-1-pyridin-2-yl-N-(2-pyridin-2-ylethyl)methanesulfonamide], the “GITAR > GRAMM % SEP” value came out at 23.4% and the EC50 was 286 nM. In addition, the Emax under setting [1] worked out at 61.1%. Also, the Emax under setting [2] is > 5%.
`C[C@]12Cc3cnn(-c4ccc(F)cc4)c3C=C1CC[C@@H]2CN(CCc1ccccn1)S(=O)(=O)Cc1ccncc1` [Example 166, N-{[(4αR,5S)-1-(4-fluorophenyl)-4α-methyl-1,4,4α,5,6,7-hexahydrocyclopenta[f]indazol-5-yl]methyl}-1-pyridin-4-yl-N-(2-pyridin-2-ylethyl)methanesulfonamide]: the “GITAR > GRAMM % SEP” value is listed as 15.3% and the EC50 was determined as 549 nM. Moreover, under setting [1], the Emax stood at 71.7%. Also, the Emax under setting [2] is > 5%.

These data come from US8299048B2, “Hexahydrocyclopentyl[f]indazole sulfonamides and derivatives thereof as selective glucocorticoid receptor modulators” (Merck Sharp & Dohme Corp., priority 2008, dated 2012).
